The molecules below were run against T1, Ubiquitin carboxyl-terminal hydrolase isozyme L3 (Homo sapiens, UniProt P15374) (assay: Enzyme Inhibition Assay). Conditions: pH 7.8; 22 °C.
T1 sequence (P15374 whole entry): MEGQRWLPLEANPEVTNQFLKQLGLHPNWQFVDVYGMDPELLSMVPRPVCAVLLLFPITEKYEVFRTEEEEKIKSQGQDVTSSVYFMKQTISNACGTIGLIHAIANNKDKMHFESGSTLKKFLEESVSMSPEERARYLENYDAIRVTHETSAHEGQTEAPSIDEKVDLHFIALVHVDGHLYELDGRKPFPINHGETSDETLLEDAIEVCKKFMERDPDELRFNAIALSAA
Experimental: Enzyme reactions were carried out on Costar 96-well black assay plates. After the reaction, AMC fluorescence (excitation wavelength: 355 nm, emission wavelength: 460 nm) was subsequently measured 40 times every 3 s with a Wallac 1420 multi-label counter. Initial velocities (from 0 to 30 s) were used for IC50 determination, using GraphPad Prism 4 software.

Row | SMILES | IC50
1 | COc1cccc(N(CC(=O)NC2CCCC2)S(=O)(=O)c2ccccc2)c1 [2-[benzene(3-methoxyphenyl)sulfonamido]-N-cyclopentylacetamide] | > 386 µM
2 | Nc1nc(CSc2nnc(-c3ccco3)n2-c2ccccc2)cs1 [4-({[5-(furan-2-yl)-4-phenyl-4H-1,2,4-triazol-3-yl]sulfanyl}methyl)-1,3-thiazol-2-amine] | > 387 µM
3 | COc1ccc(S(=O)(=O)N(CC(=O)NC2CC2)c2ccc(C)cc2)cc1 [N-cyclopropyl-2-[(4-methoxybenzene)(4-methylphenyl)sulfonamido]acetamide] | > 401 µM
4 | COc1ccc(N(CC(=O)NC2CC2)S(=O)(=O)c2ccc(C)cc2)cc1 [N-cyclopropyl-2-[(4-methoxyphenyl)(4-methylbenzene)sulfonamido]acetamide] | > 334 µM
5 | CCS(=O)(=O)Nc1cccc(C2=NN(C(C)=O)C(c3cccs3)C2)c1 (stereo not drawn) [N-{3-[1-acetyl-5-(thiophen-2-yl)-4,5-dihydro-1H-pyrazol-3-yl]phenyl}ethane-1-sulfonamide] | > 331 µM

Now those with a lower IC50, led by results:

Row | IC50 | SMILES
6 | 154 µM | COc1ccc(C2C(C(=O)c3cccs3)C(=O)C(=O)N2c2nncs2)cc1 (stereo not drawn)
7 | 103 µM | Cc1ccc(C(=O)C2C(=O)C(=O)N(Cc3ccccc3)C2c2cccnc2)o1 (stereo not drawn) [1-benzyl-3-hydroxy-4-[(5-methylfuran-2-yl)carbonyl]-5-(pyridin-3-yl)-2,5-dihydro-1H-pyrrol-2-one]
8 | 123 µM | Cc1ccc(C(=O)C2C(=O)C(=O)N(Cc3cccnc3)C2c2ccc(F)cc2)o1 (stereo not drawn) [5-(4-fluorophenyl)-3-hydroxy-4-[(5-methylfuran-2-yl)carbonyl]-1-(pyridin-3-ylmethyl)-2,5-dihydro-1H-pyrrol-2-one]

Source: BindingDB's records for doi:10.1016/j.bmc.2007.07.016 (Waseda University, 2007)
